Source: ChEMBL document CHEMBL1135154, “Optimization of the beta-aminoester class of factor Xa inhibitors. Part 1: P(4) and side-chain modifications for improved in vitro potency” (Bioorg Med Chem Lett, 2002)

How the values were obtained:
[1] = target: T1, Prothrombin (Homo sapiens, UniProt P00734); experiment: In vitro inhibitory activity against human Coagulation factor IIa
[2] = target: Coagulation factor X (Homo sapiens, UniProt P00742); experiment: In vitro inhibitory activity against human Coagulation factor Xa
[3] = target: Serine protease 1 (Homo sapiens, UniProt P07477); experiment: In vitro inhibitory activity against human trypsin
[4] = Activated partial thromboplastin times (APTT) was determined in human plasma; format: functional
[5] = Activated partial thromboplastin times (APTT) was determined in rat plasma; format: functional
[6] = target: T1, Prothrombin; experiment: Ratio of human Coagulation factor IIa to that of human Coagulation factor Xa was evaluated
[7] = Activated partial thromboplastin times (APTT) was determined int human plasma; format: functional

Sequence of Coagulation factor X (P00742 41-179 limits assumed): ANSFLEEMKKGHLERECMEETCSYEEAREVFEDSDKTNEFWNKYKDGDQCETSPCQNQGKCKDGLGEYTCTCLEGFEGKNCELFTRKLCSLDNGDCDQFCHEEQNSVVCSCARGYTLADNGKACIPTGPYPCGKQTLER
Sequence of Coagulation factor X (P00742 235-488 limits assumed): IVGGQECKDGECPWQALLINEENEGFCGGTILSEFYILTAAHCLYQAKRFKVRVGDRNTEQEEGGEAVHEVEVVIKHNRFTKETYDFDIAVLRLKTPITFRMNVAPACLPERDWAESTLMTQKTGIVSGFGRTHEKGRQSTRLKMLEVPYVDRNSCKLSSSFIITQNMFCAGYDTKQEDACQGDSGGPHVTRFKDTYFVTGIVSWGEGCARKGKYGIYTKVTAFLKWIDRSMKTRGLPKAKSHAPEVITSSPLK
Sequence of Serine protease 1 (P07477 whole entry): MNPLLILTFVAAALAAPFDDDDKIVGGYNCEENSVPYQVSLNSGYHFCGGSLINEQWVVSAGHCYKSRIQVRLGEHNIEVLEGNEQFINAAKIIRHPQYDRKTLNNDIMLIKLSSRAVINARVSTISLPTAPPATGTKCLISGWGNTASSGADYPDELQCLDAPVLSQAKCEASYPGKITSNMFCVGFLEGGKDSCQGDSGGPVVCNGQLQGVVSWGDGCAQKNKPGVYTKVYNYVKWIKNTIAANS

| Compound | Ki [1] | Ki [2] | Ki [3] | APTT [4] | APTT [5] | Ki ratio (IIa/Xa) [6] | APTT [7] |
| --- | --- | --- | --- | --- | --- | --- | --- |
| CCOC(=O)NCc1cccc(-c2ccc(C(=O)N[C@H](C)[C@@H](Cc3cccc(C(=N)N)c3)C(=O)OC)cc2)c1 | > 4000 nM | > 1200 nM | > 2900 nM |  |  |  |  |
| COC(=O)[C@@H](CNC(=O)c1ccc(-c2ccccc2)cc1)Cc1cccc(C(=N)N)c1 | > 3950 nM | 20 nM | 230 nM |  |  |  |  |
| COC(=O)[C@H](Cc1cccc(C(=N)N)c1)[C@@H](/C=C/c1ccccc1)NC(=O)c1ccc(-c2ccccc2)cc1 | 954 nM | 9.4 nM |  |  |  |  |  |
| COC(=O)[C@H](Cc1cccc(C(=N)N)c1)[C@@H](Cc1ccccc1)NC(=O)c1ccc(-c2ccccc2)cc1 | 709 nM | 11 nM | 75 nM |  |  |  |  |
| COC(=O)[C@H](Cc1cccc(C(=N)N)c1)[C@@H](C)NC(=O)c1ccc(-c2cccc(C(N)=O)c2)cc1 | > 4000 nM |  | 90 nM |  |  |  |  |
| COC(=O)[C@H](Cc1cccc(C(=N)N)c1)[C@H](NC(=O)c1ccc(-c2cccc(CN)c2)cc1)C(C)C | > 3950 nM | 8 nM | 300 nM |  |  |  |  |
| COC(=O)[C@H](Cc1cccc(C(=N)N)c1)[C@@H](CC(C)C)NC(=O)c1ccc(-c2cccc(CN)c2)cc1 | 990 nM | 0.4 nM | 38 nM |  |  |  |  |
| COC(=O)[C@H](Cc1cccc(C(=N)N)c1)[C@@H](C)NC(=O)c1ccc(-c2ccccc2)cc1 |  | 5.3 nM | 69 nM | 3.9 µM | 5.05 µM | ~3250 |  |
| COC(=O)[C@H](Cc1cccc(C(=N)N)c1)[C@@H](CC1CCCCC1)NC(=O)c1ccc(-c2cccc(CN)c2)cc1 | 650 nM | 4 nM | 36 nM |  |  |  |  |
| COC(=O)[C@H](Cc1cccc(C(=N)N)c1)[C@@H](C)NC(=O)c1ccc(-c2ccc(C(N)=O)cc2)cc1 | > 4000 nM | 2 nM | 42 nM |  |  |  |  |
| COC(=O)[C@H](Cc1cccc(C(=N)N)c1)[C@@H](CCc1ccccc1)NC(=O)c1ccc(-c2ccccc2)cc1 | 810 nM | 21 nM | 67 nM |  |  |  |  |
| COC(=O)[C@H](Cc1cccc(C(=N)N)c1)[C@@H](C)NC(=O)c1ccc(-c2ccc(C(=O)O)cc2)cc1 | > 4000 nM | 69 nM |  |  |  |  |  |
| COC(=O)[C@H](Cc1cccc(C(=N)N)c1)[C@@H](C)NC(=O)c1ccc(-c2cccc(CN(C)C)c2)cc1 | 2660 nM | 1 nM | 95 nM |  |  |  |  |
| COC(=O)[C@H](Cc1cccc(C(=N)N)c1)[C@@H](C)NC(=O)c1ccc(-c2cccc(CN)c2)cc1 |  |  | 69 nM |  | 1.7 µM |  | 0.33 µM |
| CC[C@@H](NC(=O)c1ccc(-c2cccc(CN)c2)cc1)[C@@H](Cc1cccc(C(=N)N)c1)C(=O)OC | 2100 nM | 0.7 nM | 63 nM |  |  |  |  |
